# Tests used:
# Format in all cases: in vivo
# [1] = test system: corn (Zea mays); test: General postemergence herbicidal activity, corn; settings: post-emergence, 336 h, postemergence, after 14 d, 0 = no injury, 100 = complete kill, read-out: ZEAMX % Visual Injury; for plant injury at 35 g/ha: 35 g ai/ha; for plant injury at 70 g/ha: 70 g ai/ha; for plant injury at 140 g/ha: 140 g ai/ha
# Description: (§1) Seeds or nutlets of the desired test plant species were planted in Sun Gro MetroMix® 360 planting mixture, which typically has a pH of 6.0 to 6.8 and an organic matter content of about 30 percent, in plastic pots with a surface area of 64 square centimeters (cm^2). When required to ensure good germination and healthy plants, a fungicide treatment and/or other chemical or physical treatment was applied. The plants were grown for 7-21 days (d) in a greenhouse with an approximate 15-hour (h) photoperiod which was maintained at about 23-29° C. during the day and 22-28° C. during the night. Nutrients and water were added on a regular basis and supplemental lighting was provided with overhead metal halide 1000-Watt lamps as necessary. The plants were employed for testing when they reached the first or second true leaf stage.
# (§2) A weighed amount, determined by the highest rate to be tested, of each test compound was dissolved in 4 mL of a 97:3 volume per volume (v/v) mixture of acetone and dimethyl sulfoxide (DMSO) to obtain concentrated stock solutions. […] The concentrated stock solutions obtained were diluted with 20 mL of an aqueous mixture containing acetone, water, isopropyl alcohol, DMSO, Atplus 411F crop oil concentrate, and Triton X-155 surfactant in a 48.5:39:10:1.5:1.0:0.02 v/v ratio to obtain spray solutions containing the highest application rates. Additional application rates were obtained by serial dilution of 12 mL of the high rate solution into a solution containing 2 mL of 97:3 v/v mixture of acetone and DMSO and 10 mL of an aqueous mixture containing acetone, water, isopropyl alcohol, DMSO, Atplus 411F crop oil concentrate, and Triton X-155 surfactant in a 48.5:39:10:1.5:1.0:0.02 v/v ratio to obtain ½×, ¼×, ⅛× and 1/16× rates of the high rate. Compound requirements are based upon a 12 mL application volume at a rate of 187 liters per hectare (L/ha). Formulated compounds were applied to the plant material with an overhead Mandel track sprayer equipped with 8002E nozzles calibrated to deliver 187 L/ha over an application area of 0.503 square meters (m^2) at a spray height of 18 inches (43 cm) above the average plant canopy height. Control plants were sprayed in the same manner with the solvent blank.
# (§3) The treated plants and control plants were placed in a greenhouse as described above and watered by sub-irrigation to prevent wash-off of the test compounds. After 14 d, the condition of the test plants as compared with that of the untreated plants was determined visually and scored on a scale of 0 to 100 percent where 0 corresponds to no injury and 100 corresponds to complete kill.
# [2] = test system: velvetleaf (Abutilon theophrasti); test: General postemergence herbicidal activity, velvetleaf; settings: post-emergence, 336 h, postemergence, after 14 d, 0 = no injury, 100 = complete kill, read-out: ABUTH % Visual Injury; for pest or weed control at 35 g/ha: 35 g ai/ha; for pest or weed control at 70 g/ha: 70 g ai/ha; for pest or weed control at 140 g/ha: 140 g ai/ha
# Description: as §1, §2, §3
# [3] = test system: lambsquarters (Chenopodium album); test: General postemergence herbicidal activity, lambsquarters; settings: post-emergence, 336 h, postemergence, after 14 d, 0 = no injury, 100 = complete kill, read-out: CHEAL % Visual Injury; for pest or weed control at 35 g/ha: 35 g ai/ha; for pest or weed control at 70 g/ha: 70 g ai/ha; for pest or weed control at 140 g/ha: 140 g ai/ha
# Description: as §1, §2, §3
# [4] = test system: wild buckwheat (Polygonum convululus); test: General postemergence herbicidal activity, wild buckwheat; settings: post-emergence, 336 h, postemergence, after 14 d, 0 = no injury, 100 = complete kill, read-out: POLCO % Visual Injury; for pest or weed control at 35 g/ha: 35 g ai/ha; for pest or weed control at 70 g/ha: 70 g ai/ha; for pest or weed control at 140 g/ha: 140 g ai/ha
# Description: as §1, §2, §3
smiles,measurement,setting,value
"COc1c(Cl)ccc(-c2cc(N)c(Cl)c(C(=O)NOCc3ccccc3)n2)c1F [Compound 5, 4-Amino-N-(benzyloxy)-3-chloro-6-(4-chloro-2-fluoro-3-methoxyphenyl)picolinamide]",plant injury at 35 g/ha,[1],0%
same,pest or weed control at 35 g/ha,[2],100%
same,pest or weed control at 35 g/ha,[3],100%
same,pest or weed control at 35 g/ha,[4],100%
"COc1c(Cl)ccc(-c2cc(N)c(Cl)c(C(=O)N(C)OC)n2)c1F [Compound 6, 4-Amino-3-chloro-6-(4-chloro-2-fluoro-3-methoxyphenyl)-N-methoxy-N-methyl-picolinamide]",plant injury at 70 g/ha,[1],0%
same,pest or weed control at 70 g/ha,[2],100%
same,pest or weed control at 70 g/ha,[3],100%
same,pest or weed control at 70 g/ha,[4],100%
"CCCONC(=O)c1nc(-c2ccc(Cl)c(OC)c2F)cc(N)c1Cl [Compound 7, 4-Amino-3-chloro-6-(4-chloro-2-fluoro-3-methoxyphenyl)-N-propoxypicolinamide]",plant injury at 35 g/ha,[1],25%
same,pest or weed control at 35 g/ha,[2],100%
same,pest or weed control at 35 g/ha,[3],100%
same,pest or weed control at 35 g/ha,[4],100%
"COc1c(Cl)ccc(-c2cc(N)c(Cl)c(C(=O)NOC(C)C)n2)c1F [Compound 8, 4-Amino-3-chloro-6-(4-chloro-2-fluoro-3-methoxyphenyl)-N-isopropoxypicolinamide]",plant injury at 70 g/ha,[1],0%
same,pest or weed control at 70 g/ha,[2],100%
same,pest or weed control at 70 g/ha,[3],100%
same,pest or weed control at 70 g/ha,[4],100%
"C=CCON(C(C)=O)C(=O)c1nc(-c2ccc(Cl)c(OC)c2F)nc(N)c1C=C [Compound 9, N-Acetyl-N-(2-propenyloxy)-6-amino-2-(4-chloro-2-fluoro-3-methoxyphenyl)-5-vinylpyrimidine-4-carboxamide]",plant injury at 140 g/ha,[1],25%
same,pest or weed control at 140 g/ha,[2],95%
same,pest or weed control at 140 g/ha,[3],100%
same,pest or weed control at 140 g/ha,[4],80%
"C=CCONC(=O)c1nc(-c2ccc(Cl)c(OC)c2F)nc(N)c1C=C [Compound 10, N-(2-Propenyloxy)-6-amino-2-(4-chloro-2-fluoro-3-methoxyphenyl)-5-vinylpyrimidine-4-carboxamide]",plant injury at 140 g/ha,[1],15%
same,pest or weed control at 140 g/ha,[2],100%
same,pest or weed control at 140 g/ha,[3],85%
same,pest or weed control at 140 g/ha,[4],15%
"C=CCONC(=O)c1nc(C2CC2)nc(N)c1Cl [Compound 11, N-(2-Propenyloxy)-6-amino-5-chloro-2-cyclopropylpyrimidine-4-carboxamide]",plant injury at 140 g/ha,[1],20%
same,pest or weed control at 140 g/ha,[2],40%
same,pest or weed control at 140 g/ha,[3],100%
same,pest or weed control at 140 g/ha,[4],100%
"COc1c(Cl)ccc(-c2cc(N)c(Cl)c(C(=O)NOC3CCCCO3)n2)c1F (stereo not drawn) [Compound 12, 4-amino-3-chloro-6-(4-chloro-2-fluoro-3-methoxyphenyl)-N-(tetrahydro-2H-pyran-2-yloxy)picolinamide]",plant injury at 70 g/ha,[1],0%
same,pest or weed control at 70 g/ha,[2],100%
same,pest or weed control at 70 g/ha,[3],100%
same,pest or weed control at 70 g/ha,[4],100%
"C#CCONC(=O)c1nc(-c2ccc(Cl)c(OC)c2F)cc(N)c1Cl [Compound 13, 4-Amino-3-chloro-6-(4-chloro-2-fluoro-3-methoxyphenyl)-N-(2-propynyloxy)picolinamide]",plant injury at 70 g/ha,[1],0%
same,pest or weed control at 70 g/ha,[2],100%
same,pest or weed control at 70 g/ha,[3],100%
same,pest or weed control at 70 g/ha,[4],100%
"COc1c(Cl)ccc(-c2cc(N)c(Cl)c(C(=O)NOCc3ccc(C)cc3)n2)c1F [Compound 14, 4-Amino-3-chloro-6-(4-chloro-2-fluoro-3-methoxyphenyl)-N-(4-methyl-benzyloxy)picolinamide]",plant injury at 70 g/ha,[1],15%
same,pest or weed control at 70 g/ha,[2],100%
same,pest or weed control at 70 g/ha,[3],100%
same,pest or weed control at 70 g/ha,[4],100%
"COc1c(Cl)ccc(-c2cc(N)c(Cl)c(C(=O)NOCc3ccc(Cl)cc3)n2)c1F [Compound 15, 4-Amino-3-chloro-6-(4-chloro-2-fluoro-3-methoxyphenyl)-N-(4-chloro-benzyloxy)picolinamide]",plant injury at 70 g/ha,[1],10%
same,pest or weed control at 70 g/ha,[2],100%
same,pest or weed control at 70 g/ha,[3],100%
same,pest or weed control at 70 g/ha,[4],100%
"COC[C@H]1O[C@H](ONC(=O)c2nc(-c3ccc(Cl)c(OC)c3F)cc(N)c2Cl)[C@H](OC)[C@@H](OC)[C@@H]1OC [Compound 16, 4-Amino-3-chloro-6-(4-chloro-2-fluoro-3-methoxyphenyl)-N-((2R,3R,4S,5R,6R)-3,4,5-trimethoxy-6-(methoxymethyl)tetrahydro-2H-pyran-2-yloxy)picolinamide]",plant injury at 70 g/ha,[1],10%
same,pest or weed control at 70 g/ha,[2],100%
same,pest or weed control at 70 g/ha,[3],100%
same,pest or weed control at 70 g/ha,[4],95%
"COc1c(Cl)ccc(-c2cc(N)c(Cl)c(C(=O)NOC3CCCO3)n2)c1F (stereo not drawn) [Compound 17, 4-Amino-3-chloro-6-(4-chloro-2-fluoro-3-methoxyphenyl)-N-(tetrahydrofuran-2-yloxy)picolinamide]",plant injury at 70 g/ha,[1],10%
same,pest or weed control at 70 g/ha,[2],100%
same,pest or weed control at 70 g/ha,[3],100%
same,pest or weed control at 70 g/ha,[4],100%
"COc1c(Cl)ccc(-c2cc(N)c(Cl)c(C(=O)NOC3C=CCCC3)n2)c1F (stereo not drawn) [Compound 18, 4-Amino-3-chloro-6-(4-chloro-2-fluoro-3-methoxyphenyl)-N-(cyclohex-2-enyl-oxy)picolinamide]",plant injury at 140 g/ha,[1],5%
same,pest or weed control at 140 g/ha,[2],100%
same,pest or weed control at 140 g/ha,[3],100%
same,pest or weed control at 140 g/ha,[4],100%
"COc1c(Cl)ccc(-c2cc(N)c(Cl)c(C(=O)NOCC(=O)O)n2)c1F [Compound 19, 2-(4-Amino-3-chloro-6-(4-chloro-2-fluoro-3-methoxyphenyl)picolinamidooxy)acetic acid]",plant injury at 35 g/ha,[1],25%
same,pest or weed control at 35 g/ha,[2],85%
same,pest or weed control at 35 g/ha,[3],100%
same,pest or weed control at 35 g/ha,[4],85%
"C=C(C)CONC(=O)c1nc(-c2ccc(Cl)c(OC)c2F)cc(N)c1Cl [Compound 28, 4-Amino-3-chloro-6-(4-chloro-2-fluoro-3-methoxyphenyl)-N-(2-methyl-2-propenyl-oxy)picolinamide]",plant injury at 35 g/ha,[1],25%
same,pest or weed control at 35 g/ha,[2],100%
same,pest or weed control at 35 g/ha,[3],100%
"COc1c(Cl)ccc(-c2cc(N)c(Cl)c(C(=O)NOCc3cncs3)n2)c1F [Compound 36, 4-Amino-3-chloro-6-(4-chloro-2-fluoro-3-methoxyphenyl)-N-(thiazol-5-yl-methoxy)picolinamide]",plant injury at 35 g/ha,[1],25%
same,pest or weed control at 35 g/ha,[2],100%
same,pest or weed control at 35 g/ha,[3],100%
"COc1c(Cl)ccc(-c2cc(N)c(Cl)c(C(=O)NOCc3nnsc3Cl)n2)c1F [Compound 47, 4-Amino-3-chloro-N-((5-chloro-1,2,3-thiadiazol-4-yl)methoxy)-6-(4-chloro-2-fluoro-3-methoxyphenyl)picolinamide]",plant injury at 17.5 g/ha,[1]; 17.5 g ai/ha,35%
same,pest or weed control at 17.5 g/ha,[2]; 17.5 g ai/ha,100%
same,pest or weed control at 17.5 g/ha,[3]; 17.5 g ai/ha,100%

# — US20130324412A1, “N-ALKOXYAMIDES OF 6-(SUBSTITUTED PHENYL)-4-AMINOPICOLINATES AND 2-(SUBSTITUTED PHENYL)-6-AMINO-4-PYRIMIDINECARBOXYLATES AND THEIR USE AS SELECTIVE HERBICIDES FOR CROPS” (DOW AGROSCIENCES LLC, priority 2009, published 2013)
